In ChEMBL document CHEMBL1133397, “Fused bicyclic Gly-Asp beta-turn mimics with potent affinity for GPIIb-IIIa. Exploration of the arginine isostere” (Bioorg Med Chem Lett, 2000):

What was measured:
[1] = Blood level after a 10 mg/kg oral dose in rat expressed as AUC was determined; assay type: ADME, organism-based; design: dose 10 mg/kg, route oral
[2] = Blood level after a 10 mg/kg oral dose in rat expressed as Cmax was determined; assay type: ADME, organism-based; design: dose 10 mg/kg, route oral
[3] = molecular target: Integrin alpha-IIb/beta-3 (Homo sapiens, UniProt P05106+P08514); test: Inhibition of fibrinogen binding to purified human GPIIb-IIIa in ELISA; assay type: protein-complex assay
[4] = species on record: Homo sapiens; test: The compound was evaluated for reduction of ADP-induced human platelet aggregation response by 50% using PRP assay; assay type: functional, organism-based

Sequence of Integrin alpha-IIb/beta-3 (P05106 27-788 limits assumed): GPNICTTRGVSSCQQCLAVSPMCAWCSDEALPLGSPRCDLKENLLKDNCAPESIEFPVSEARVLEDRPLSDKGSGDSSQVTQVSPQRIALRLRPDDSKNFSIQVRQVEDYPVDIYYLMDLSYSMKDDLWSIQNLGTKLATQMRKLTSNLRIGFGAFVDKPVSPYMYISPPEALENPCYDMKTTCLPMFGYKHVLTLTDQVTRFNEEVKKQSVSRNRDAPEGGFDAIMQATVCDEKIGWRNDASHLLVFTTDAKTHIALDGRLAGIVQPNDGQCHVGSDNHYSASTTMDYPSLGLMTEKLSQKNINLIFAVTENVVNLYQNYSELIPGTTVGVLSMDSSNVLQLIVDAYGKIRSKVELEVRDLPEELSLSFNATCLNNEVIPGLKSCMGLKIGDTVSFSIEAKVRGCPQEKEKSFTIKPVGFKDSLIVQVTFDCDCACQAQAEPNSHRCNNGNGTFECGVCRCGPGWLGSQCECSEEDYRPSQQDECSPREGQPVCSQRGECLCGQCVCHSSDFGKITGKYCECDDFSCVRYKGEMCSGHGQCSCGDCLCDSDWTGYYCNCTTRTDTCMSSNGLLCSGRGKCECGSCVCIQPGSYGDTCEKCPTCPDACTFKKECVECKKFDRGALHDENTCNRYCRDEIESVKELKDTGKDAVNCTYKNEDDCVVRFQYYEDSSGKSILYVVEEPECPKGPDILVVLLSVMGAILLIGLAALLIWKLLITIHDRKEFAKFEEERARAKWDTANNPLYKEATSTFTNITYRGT
Sequence of Integrin alpha-IIb/beta-3 (P08514 32-887 limits assumed): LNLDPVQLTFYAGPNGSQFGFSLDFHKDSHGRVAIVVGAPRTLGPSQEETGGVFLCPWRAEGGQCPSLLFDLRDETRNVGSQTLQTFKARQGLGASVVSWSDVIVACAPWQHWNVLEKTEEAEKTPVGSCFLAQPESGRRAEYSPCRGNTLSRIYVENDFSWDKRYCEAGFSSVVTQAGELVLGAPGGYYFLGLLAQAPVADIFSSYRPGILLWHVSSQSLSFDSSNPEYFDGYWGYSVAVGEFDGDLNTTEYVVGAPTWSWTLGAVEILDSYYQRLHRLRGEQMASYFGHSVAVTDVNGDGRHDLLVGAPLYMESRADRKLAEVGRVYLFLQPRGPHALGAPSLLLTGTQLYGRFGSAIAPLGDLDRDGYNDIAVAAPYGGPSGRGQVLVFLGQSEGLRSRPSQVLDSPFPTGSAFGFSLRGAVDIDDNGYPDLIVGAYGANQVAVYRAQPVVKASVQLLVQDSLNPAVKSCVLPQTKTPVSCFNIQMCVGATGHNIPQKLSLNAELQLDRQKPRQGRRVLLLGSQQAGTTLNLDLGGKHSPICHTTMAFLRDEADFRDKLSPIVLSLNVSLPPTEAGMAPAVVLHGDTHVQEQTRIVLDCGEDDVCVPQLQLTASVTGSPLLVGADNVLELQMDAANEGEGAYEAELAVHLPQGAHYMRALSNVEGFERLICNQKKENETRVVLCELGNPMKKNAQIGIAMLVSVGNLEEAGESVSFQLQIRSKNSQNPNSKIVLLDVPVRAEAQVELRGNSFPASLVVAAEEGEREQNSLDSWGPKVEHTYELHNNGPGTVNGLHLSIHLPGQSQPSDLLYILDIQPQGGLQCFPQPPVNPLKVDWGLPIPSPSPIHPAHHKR
Sequence of Integrin alpha-IIb/beta-3 (P08514 891-1039 limits assumed): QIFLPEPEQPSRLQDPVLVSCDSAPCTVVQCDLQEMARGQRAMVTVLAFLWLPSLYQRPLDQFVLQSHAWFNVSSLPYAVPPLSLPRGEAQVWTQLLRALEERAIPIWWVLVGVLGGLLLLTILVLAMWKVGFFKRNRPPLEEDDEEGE

## N=C(N)c1ccc(C(=O)Nc2ccc3c(c2)CCC(CC(=O)O)C3=O)cc1 (configuration not stated)
[1]
  AUC: 11200 ng·h/mL
[2]
  Cmax: 3630 ng/mL

## O=C(O)CC1CCc2cc(NC(=O)/C=C/C3CCNCC3)ccc2C1=O (configuration not stated)
[3]
  IC50: 26 nM
[1]
  AUC: 8140 ng·h/mL
[4]
  IC50: 360 nM
[2]
  Cmax: 2700 ng/mL

## N=C(N)c1ccc(C(=O)Nc2ccc3c(c2)CCC(CC(=O)O)C3=O)c(F)c1 (configuration not stated)
[3]
  IC50: 3 nM
[1]
  AUC: 11900 ng·h/mL
[4]
  IC50: 100 nM
[2]
  Cmax: 4020 ng/mL

## N=C(N)c1cc(F)c(C(=O)Nc2ccc3c(c2)CCC(CC(=O)O)C3=O)c(F)c1 (configuration not stated)
[3]
  IC50: 5 nM
[1]
  AUC: 6410 ng·h/mL
[4]
  IC50: 240 nM
[2]
  Cmax: 2020 ng/mL

## O=C(O)CC1CCc2cc(NC(=O)COC3CCNCC3)ccc2C1=O (configuration not stated)
[4]
  IC50: 18000 nM

## O=C(O)CC1CCc2cc(NCCCC3CCNCC3)ccc2C1=O (configuration not stated)
[3]
  IC50: 610 nM
[4]
  IC50: 5500 nM

## O=C(O)CC1CCc2cc(NC(=O)CCC3CCNCC3)ccc2C1=O (configuration not stated)
[3]
  IC50: 71 nM
[4]
  IC50: 910 nM

## N=C(N)c1ccc(C(=O)Nc2ccc3c(c2)CCC(CC(=O)O)C3=O)c(C(F)(F)F)c1 (configuration not stated)
[3]
  IC50: 72 nM
[4]
  IC50: 2000 nM

## N=C(N)c1ccc(C(=O)Nc2ccc3c(c2)CCC(CC(=O)O)C3=O)cn1 (configuration not stated)
[3]
  IC50: 9 nM
[1]
  AUC: 3560 ng·h/mL
[4]
  IC50: 220 nM
[2]
  Cmax: 1170 ng/mL

## N=C(N)c1ccc(C(=O)Nc2ccc3c(c2)CCC(CC(=O)O)C3=O)s1 (configuration not stated)
[3]
  IC50: 210 nM
[4]
  IC50: 9000 nM

## N=C(N)c1ccc(C(=O)Nc2ccc3c(c2)CCC(CC(=O)O)C3=O)c(Cl)c1 (configuration not stated)
[1]
  AUC: 10400 ng·h/mL
[4]
  IC50: 400 nM
[2]
  Cmax: 3110 ng/mL

## O=C(O)CC1CCc2cc(NC(=O)OCC3CCNCC3)ccc2C1=O (configuration not stated)
[3]
  IC50: 330 nM
[4]
  IC50: 1800 nM
